Read-outs that look alike come from different tables or passages of the source.
Experiments:
UGT2B10 [1] = biological target: T1, UGT2B10 (Homo sapiens, UniProt P36537); experiment: inhibition of cotinine N-glucuronidation at […], UHPLC-MS/MS; format: biochemical; conditions: read-out: % inhibition at 10 μM
T1 construct: recombinant UGT2B10
T1 sequence (P36537 24-528): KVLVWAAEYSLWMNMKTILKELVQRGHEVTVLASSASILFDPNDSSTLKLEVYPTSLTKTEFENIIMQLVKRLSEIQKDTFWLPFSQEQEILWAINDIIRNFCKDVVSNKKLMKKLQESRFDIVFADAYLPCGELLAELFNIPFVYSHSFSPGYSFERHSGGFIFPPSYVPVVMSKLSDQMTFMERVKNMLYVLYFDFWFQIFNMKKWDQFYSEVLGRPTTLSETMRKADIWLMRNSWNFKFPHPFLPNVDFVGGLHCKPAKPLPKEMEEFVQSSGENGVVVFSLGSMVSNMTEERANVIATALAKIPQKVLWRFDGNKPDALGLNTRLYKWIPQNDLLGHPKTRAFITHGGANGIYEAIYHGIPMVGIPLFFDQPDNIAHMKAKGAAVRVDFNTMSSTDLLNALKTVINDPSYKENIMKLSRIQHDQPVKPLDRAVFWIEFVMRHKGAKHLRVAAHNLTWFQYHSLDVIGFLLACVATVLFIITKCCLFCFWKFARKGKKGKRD

UGT2B10 [2] = biological target: T1, UGT2B10; experiment: inhibition of cotinine N-glucuronidation by recombinant enzyme, UHPLC-MS/MS; format: biochemical
UGT1A6 = biological target: T2, UGT1A6 (Homo sapiens, UniProt P19224); experiment: glucuronide formation by recombinant enzyme, UHPLC-MS/MS; format: biochemical
T2 construct: recombinant UGT1A6
T2 sequence (P19224 27-532): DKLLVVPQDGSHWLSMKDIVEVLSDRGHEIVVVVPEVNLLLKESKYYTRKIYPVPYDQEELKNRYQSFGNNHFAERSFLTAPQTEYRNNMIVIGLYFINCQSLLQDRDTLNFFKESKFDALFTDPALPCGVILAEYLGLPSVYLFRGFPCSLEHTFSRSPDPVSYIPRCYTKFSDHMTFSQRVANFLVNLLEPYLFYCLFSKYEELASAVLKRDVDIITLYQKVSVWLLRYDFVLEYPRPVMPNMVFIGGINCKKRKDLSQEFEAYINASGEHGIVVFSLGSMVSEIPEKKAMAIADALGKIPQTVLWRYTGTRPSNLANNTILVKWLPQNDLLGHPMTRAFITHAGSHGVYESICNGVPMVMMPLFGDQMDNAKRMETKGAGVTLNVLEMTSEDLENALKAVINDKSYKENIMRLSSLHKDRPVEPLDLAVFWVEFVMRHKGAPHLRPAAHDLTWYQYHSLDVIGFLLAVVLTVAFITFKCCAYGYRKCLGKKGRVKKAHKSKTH

purified protein = substrate: CN1C(=O)CC[C@H]1c1cccnc1; experiment: purified protein; conditions: UDPGA; MgCl2

CN(C)CCC=C1c2ccccc2CCc2ccccc21 [AMT, amitriptyline]
inhibition at 10 µM (UGT2B10 [1]): 97.5%

O=C1Nc2ccc(Cl)cc2C(c2ccccc2Cl)=NC1O (stereo not drawn) [LOR, lorazepam]
IC50 (UGT2B10 [2]): 0.01 µM

COc1c(C)c2c(c(O)c1C/C=C(\C)CCC(=O)O)C(=O)OC2 [MPA, mycophenolic acid]
IC50 (UGT2B10 [2]; read-out: IC50): 380 µM | glucuronide formation by recombinant enzyme, UHPLC-MS/MS (UGT1A6): incubations of APAP and MPA with UGT1A6 produced APAP‐glucuronide and MPA‐ß‐D‐glucuronide, respectively

CC(=O)Nc1ccc(O)cc1 [APAP, acetaminophen]
glucuronide formation by recombinant enzyme, UHPLC-MS/MS (UGT1A6): incubations of APAP and MPA with UGT1A6 produced APAP‐glucuronide and MPA‐ß‐D‐glucuronide, respectively

B1: UGT2B10 (Homo sapiens) (protein)
chain: KVLVWAAEYSLWMNMKTILKELVQRGHEVTVLASSASILFDPNDSSTLKLEVYPTSLTKTEFENIIMQLVKRLSEIQKDTFWLPFSQEQEILWAINDIIRNFCKDVVSNKKLMKKLQESRFDIVFADAYLPCGELLAELFNIPFVYSHSFSPGYSFERHSGGFIFPPSYVPVVMSKLSDQMTFMERVKNMLYVLYFDFWFQIFNMKKWDQFYSEVLGRPTTLSETMRKADIWLMRNSWNFKFPHPFLPNVDFVGGLHCKPAKPLPKEMEEFVQSSGENGVVVFSLGSMVSNMTEERANVIATALAKIPQKVLWRFDGNKPDALGLNTRLYKWIPQNDLLGHPKTRAFITHGGANGIYEAIYHGIPMVGIPLFFDQPDNIAHMKAKGAAVRVDFNTMSSTDLLNALKTVINDPSYKENIMKLSRIQHDQPVKPLDRAVFWIEFVMRHKGAKHLRVAAHNLTWFQYHSLDVIGFLLACVATVLFIITKCCLFCFWKFARKGKKGKRD
Km (purified protein): 4.043 mM

Source: publication PMC11605732, “In vitro screening of UGT2B10 in silico prioritized putative ligands from drugs used in the pediatric hematopoietic stem cell transplantation setting” (Pharmacology Research & Perspectives, 2024)
